Results reported in patent publication US20230212571A1, “COMPOSITIONS AND METHODS FOR DELIVERING POLYNUCLEOTIDES” (NeOnc Technologies, Inc., priority 2020, published 2023).

Key:
AVM-BEC [1] = test: ELISA of AVM-BEC supernatants; format: cell-based, human
Description: (§1) Human surgical specimens were obtained following written informed consent from patients in accordance with Declaration of Helsinki guidelines and the Institutional Review Board (HS-04B053), at Keck School of Medicine, USC. AVM-BECs were isolated from brain tissues of patients who underwent microsurgical AVM resection. Control BECs were isolated from the structurally normal […] of patients who underwent temporal lobectomy for intractable epilepsy. Endothelial cell (EC) isolation and culture were described^5,9. (Stapleton C J, Armstrong D L, Zidovetzki R, Liu C Y, Giannotta S L, Hofman F M. Thrombospondin-1 modulates the angiogenic phenotype of human cerebral arteriovenous malformation endothelial cells. Neurosurgery. 2011; 68(5):1342-1353) (Ferreira R, Santos T, Amar A, et al. Argonaute-2 promotes miR-18a entry in human brain endothelial cells. J Am Heart Assoc. 2014; 3(3):e000968) ECs were only used between passages 3-5. Experiments were performed under shear flow conditions (12 dyn/cm^2) to reproduce arterial flow^6. (Ferreira R, Santos T, Amar A, et al. MicroRNA-18a improves human cerebral arteriovenous malformation endothelial cell function. Stroke. 2014; 45(1):293-297). For hypoxic experiments, cells were cultured in a Galaxy 48R (Eppendorf) incubator at 3% O2. MicroRNAs were co-administered with Ago-2 to increase the cellular uptake of miR-18a^9 (Ferreira R, Santos T, Amar A, et al. Argonaute-2 promotes miR-18a entry in human brain endothelial cells. J Am Heart Assoc. 2014; 3(3):e000968) (FIG. 9). Methods regarding cell treatments and transfections were included in Data.
Small interfering RNA transfection was performed as previously described^5. Briefly, ECs were transfected with small interfering RNA (siRNA) against ID1 or PAI-1 (Thermo Fisher Scientific), or small interfering control (Santa Cruz Biotechnology) constructs using Lipofectamine RNAiMax (Thermo Fisher Scientific) per the manufacturer's instructions. Knockdown of ID1 or PAI-1 was confirmed by quantitative real-time polymerase chain reaction as described^6 (FIG. 19). The sequences of the forward and reverse primers for ID1 and PAI-1 were included in Table 2.
Plasmid constructs pcDNA3-ALK2^WT (Addgene #80870) and pcDNA3-ALK2^Q207D (Addgene #80871) were a gift from Aristidis Moustakas^7. (Meyer B, Schaller C, Frenkel C, Ebeling B, Schramm J. Distributions of local oxygen saturation and its response to changes of mean arterial blood pressure in the cerebral cortex adjacent to arteriovenous malformations. Stroke. 1999; 30(12):2623-2630) 10^4 AVM-BEC were seeded 24 h before transfection. The plasmid vector containing the 3′ untranslated region (3′UTR) of human BMP4, pRP [Exp]-Puro-CMV>Luciferase:{hBMP4_3′UTR}, was constructed and packaged by VectorBuilder. The vector ID is VB200205-1078zdv, which can be used to retrieve detailed information about the vector on vectorbuilder.com. Transient transfections were performed with Lipofectamine RNAiMax (Thermo Fisher Scientific) according to the manufacturer's instructions. After 4 h, medium was replaced by fresh medium containing microRNA.
MiR-18a (hsa-miR-18a-5p, 40 nM, Dharmacon) or a scramble microRNA (40 nM, Dharmacon) in nuclease-free water was added with argonaute 2 (Ago-2, 0.4 nM, Abcam) as the microRNA carrier and stabilizer^9. (Ferreira R, Santos T, Amar A, et al. Argonaute-2 promotes miR-18a entry in human brain endothelial cells. J Am Heart Assoc. 2014; 3(3):e000968). No transfection reagent was used with miR-18a or scramble microRNA treatments. Recombinant human TSP-1 (R&D Systems) stock solution was prepared in PBS and further diluted in culture medium to be used at a final concentration of 1000 ng/mL. Cells were treated during 24 h for mRNA and 48 h for protein expression studies. NEO100 (NeOnc Technologies) stock was prepared in DMSO and used immediately or stored at −20° C. […]

AVM-BEC [2] = test: Proteome Profiler Human Angiogenesis Array of AVM-BEC lysates; format: cell-based
Description: as §1
(§2) MiR-18a (hsa-miR-18a-5p, 40 nM, Dharmacon) or a scramble microRNA (40 nM, Dharmacon) in nuclease-free water was added with argonaute 2 (Ago-2, 0.4 nM, Abcam) as the microRNA carrier and stabilizer^9. (Ferreira R, Santos T, Amar A, et al. Argonaute-2 promotes miR-18a entry in human brain endothelial cells. J Am Heart Assoc. 2014; 3(3):e000968). No transfection reagent was used with miR-18a or scramble microRNA treatments. Recombinant human TSP-1 (R&D Systems) stock solution was prepared in PBS and further diluted in culture medium to be used at a final concentration of 1000 ng/mL. Cells were treated during 24 h for mRNA and 48 h for protein expression studies. NEO100 (NeOnc Technologies) stock was prepared in DMSO and used immediately or stored at −20° C.
(§3) The levels of angiogenesis-related proteins were analyzed using the Proteome Profiler™ Human Angiogenesis Array kit (R&D Systems) following the manufacturer's instructions. The protocol for western blot was published^10. (Marín-Ramos N I, Alonso D, Ortega-Gutiérrez S, et al. New inhibitors of angiogenesis with antitumor activity in vivo. J Med Chem. 2015; 58(9):3757-3766). Information about antibodies used was included in Table 1. Membranes were visualized and quantified using a C-Digit Blot scanner (Li-Cor) or a iBright CL1000 (Thermo Fisher Scientific).

AVM-BEC [3] = test: Western blot of AVM-BEC lysates; format: cell-based, human
Description: as §1, §2, §3

AVM-BEC [4] = test: Invasion assay, Matrigel-coated Boyden chamber, AVM-BEC; format: cell-based, human; details: overnight, P=0.0012
Description: The chemoinvasion assay was described^14. (Marín-Ramos N I, Thein T Z, Cho H-Y, et al. NEO212 inhibits migration and invasion of glioma stem cells. Mol Cancer Ther. 2018; 17(3):625-637). Pictures were captured using an Eclipse 80i microscope (Nikon), and cells counted with ImageJ Software (NIH).

Substance: hsa-miR-18a-5p (UAGGUGCAUCUAGUGCAGAUAG; chemistry not given here; listed as Homo sapiens) [small non-coding RNA molecule involved in post-transcriptional regulation of gene expression; Dharmacon]
- VEGF levels (ELISA) (AVM-BEC [1]; ALK2^WT-transfected AVM-BEC, P=0.0030): decrease VEGF levels
- levels of secreted TGF-β (ELISA) (AVM-BEC [1]; AVM-BEC supernatants, P>0.9999): not significantly changed
- levels of secreted PAI-1 (AVM-BEC [1]; AVM-BEC supernatants, normoxia, vs scramble microRNA): decreased
- levels of secreted VEGF (AVM-BEC [1]; AVM-BEC supernatants, normoxia, decrease only reached significance with miR-18a): decreased
- VEGF levels (ELISA) (AVM-BEC [1]; AVM-BEC transfected with constitutively active ALK2^Q207D, P>0.9999): unable to decrease VEGF levels
- levels of secreted VEGF (AVM-BEC [1]; AVM-BEC transfected with siCTL, P=0.0007 vs scramble): decreased
- effects of miR-18a in the decrease of secreted VEGF levels (AVM-BEC [1]; AVM-BEC transfected with siPAI-1): lost
- PAI-1 secretion (AVM-BEC [1]; AVM-BEC, hypoxia 3% oxygen): reduction of PAI-1 secretion caused by miR-18a was still observed
- bFGF levels, decrease compared to scramble miR-treated AVM-BEC (AVM-BEC [2]; shear flow 12 dyn/cm2, miR-18a 40 nM with Ago-2 0.4 nM, n=1): 2 fold
- IGFBP-1 levels, upregulation compared to scramble miR-treated AVM-BEC (AVM-BEC [2]; shear flow, miR-18a 40 nM with Ago-2, n=1): 2 fold
- TSP-1 protein levels in AVM-BEC lysates (AVM-BEC [2]; vs scramble miR, n=1): did not observe any relevant differences
- downregulation of PAI-1 (AVM-BEC [2]; vs scramble miR, n=1): 20%
- upregulation of endothelin-1 (ET-1) (AVM-BEC [2]; vs scramble miR, n=1): > 20%
- upregulation of pentraxin 3 (PTX3) (AVM-BEC [2]; vs scramble miR, n=1): > 20%
- MMP9 protein levels (western blot) (AVM-BEC [3]; AVM-BEC): not significantly (P=0.9409) affected
- ratio MMP2/MMP9 protein levels (AVM-BEC [3]; AVM-BEC): lowers the ratio MMP2/MMP9
- ADAM10 protein levels (western blot) (AVM-BEC [3]; AVM-BEC, P<0.001): significantly decreased
- MMP2 protein levels (western blot) (AVM-BEC [3]; AVM-BEC, P=0.0132): significantly decreased
- levels of TGF-β (western blot) (AVM-BEC [3]; AVM-BEC, P>0.9999): not significantly changed
- phosphorylation levels of Smad3 (AVM-BEC [3]; AVM-BEC, P>0.9999): Neither the phosphorylation levels of Smad3 nor the total levels of Smad4 were altered
- total levels of Smad4 (AVM-BEC [3]; AVM-BEC, P>0.9999): Neither the phosphorylation levels of Smad3 nor the total levels of Smad4 were altered
- phosphorylation levels of Smad1/5 (AVM-BEC [3]; AVM-BEC, vs scramble): significantly (P<0.0001) decreased
- PAI-1 protein levels (western blot) (AVM-BEC [3]; patient-derived AVM-BEC, vs scramble microRNA, P<0.001, n=8): decreased
- invasiveness (AVM-BEC [4]): decreased
